Measured values: US12188936B2, “Biomarkers and therapeutics for endocrine therapy resistance” (LUNELLA BIOTECH, INC., priority 2018, dated 2025)

Key:
MCF7-Y537S cells [1] = assay: SRB survival assay (cell viability), 5-day exposure; format: cell-based, human; conditions: 4-OHT 1 μM, 5 days, vs control
Description: For FIG. 1, ** indicates p<0.005.

MCF7-Y537S cells [2] = assay: Mammosphere formation assay; format: cell-based, human; conditions: 72-hour pre-treatment with 1 μM, 5 days culture
Experimental: (§1) All of the transfected MCF7 cell lines were grown as mammospheres. […] In these figures, ** indicates p<0.005; and ns indicates not significant as evaluated by Student's t test.
(§2) MCF7 3D-mammosphere formation: A single cell suspension was prepared using enzymatic (lx Trypsin-EDTA, Sigma Aldrich, #T3924), and manual disaggregation (25 gauge needle). Cells were plated at a density of 500 cells/cm^2 in mammosphere medium (DMEM-F12+B27+20 ng/ml EGF+PenStrep) under non-adherent conditions, in culture dishes pre-coated with (2-hydroxyethylmethacrylate) (poly-HEMA, Sigma, #P3932), called “mammosphere plates.” Then, the cells were pre-treated for 72 hours with 1 μM of 4-OH-Tamoxifen. Vehicle alone (DMSO) control cells were processed in parallel. Afterwards, they were trypsined and seeded in mammosphere plates. Cells were grown for 5 days and maintained in a humidified incubator at 37° C. After 5 days of culture, 3D-spheres>50 μm were counted using an eye piece (“graticule”), and the percentage of cells plated which formed spheres was calculated and is referred to as percent mammosphere formation, and was normalized to one (1=100% MSF).

[3] = test system: transfected MCF7 cell lines (other than Y537S and ESR1 WT); assay: Mammosphere formation assay; format: cell-based, human; conditions: all transfected MCF7 cell lines except Y537S and ESR1 (WT), 72-hour pre-treatment with 1 μM, 5 days culture
Experimental: as §1, §2

MCF7-Y537S cells [4] = assay: Annexin-V analysis (apoptosis, FACS); format: cell-based, human; conditions: 1 μM for 72 hours
Description: (§3) One mechanism by which the Y537S mutation may promote mammosphere formation in the presence of Tamoxifen is by conferring resistance to apoptosis. Staining with annexin V may be used to detect apoptotic cells by its ability to bind to phosphatidylserine, a marker of apoptosis when it is on the outer leaflet of the plasma membrane. Increases in annexin V staining indicates an increase in apoptosis.
(§4) The data in FIGS. 4A-4C were obtained as follows. The transduced MCF7 cell lines were all plated in 6-well plates. On the next day, the cells were treated with 4-OHT (1 μM) for 72 hours. MCF7-EV cells were processed in parallel, as a negative control. […] For the data in these drawings, * indicates p<0.05.
(§5) Annexin-V analysis: Cell death was quantified by flow cytometry using propidium iodide (PI) and Annexin V-FITC (20). Briefly, 1.5×10^5 all the transfected cells were plated in 6 multi-well plate in complete media supplemented with 10% HiFBS. The next day, cells were treated with 1 μM of 4-OH-Tamoxifen (4-OHT) for 48 h and 72 h. Vehicle alone (DMSO) for control cells were processed in parallel. After 48 hours, cells were harvested and washed in cold phosphate-buffered saline (PBS). […] Cells were then analyzed by flow cytometry using a PE Texas Red signal detector for PI staining and a FITC signal detector to detect Annexin V binding. 30,000 events were recorded by FACS using Fortessa BD. […]

[5] = test system: transfected MCF7 cell lines; assay: Annexin-V analysis (apoptosis, FACS); format: cell-based, human; conditions: 1 μM for 72 hours
Description: as §3, §4, §5

[6] = test system: other MCF7 cell lines (ESR1 WT, Y537N, ErbB2, EV); conditions: 4-OHT 1 μM, 5 days
Experimental: To directly determine the validity of our model system, MCF7-Y537S cells were cultured for 5 days in the presence of Tamoxifen (1 μM) to assess its effect on cell viability. […] MCF7 cells were stably-transduced with either ESR1 (WT, Y537S, or Y537N) or ErbB2 (HER2), to genetically create a clinically relevant model of endocrine therapy resistance. Vector alone control MCF7 cells were generated in parallel (empty vector; EV; p-EV-105-puroR), as a negative control. […] The SRB assay was performed as a measure of cell viability and the experiment was carried out for 5 days.
Sulfo-rhodamine B (SRB) assay: SRB measures total biomass by staining cellular proteins.

SMILES: CC/C(=C(\c1ccc(O)cc1)c1ccc(OCCN(C)C)cc1)c1ccccc1 [4-OHT, 4-OH-Tamoxifen]
- cell viability (SRB survival) (MCF7-Y537S cells [1]): clearly show resistance
- mammosphere formation (MCF7-Y537S cells [2]): remain largely unaffected
- mammosphere formation efficiency (MFE) [3]: inhibited mammosphere formation efficiency
- pro-apoptotic effect (annexin V levels) (MCF7-Y537S cells [4]): specifically resistant to the pro-apoptotic effects
- annexin V levels [5]: increased in all transfected cell lines
- cell viability (SRB survival) [6]: significant inhibitory effects
